Target: T1, KRAS G12C 1-169, his-tagged protein, GDP-loaded (Homo sapiens, UniProt P01116, G12C)
T1 construct: KRAS G12C 1-169, his-tagged protein, GDP-loaded
Assay: KRAS G12C covalent binding (% modification) by mass spectrometry, ten or three minute incubation
Details: covalent binding to KRAS G12C after a ten minute incubation period
Experimental: Test compounds were prepared as 10 mM stock solutions in DMSO (Fisher cat #BP-231-100). KRAS G12C 1-169, his-tagged protein, GDP-loaded was diluted to […] in buffer (20 mM Hepes, 150 mM NaCl, 1 mM MgCl2). Compounds were tested for activity as follows:
Compounds were diluted to 50× final test concentration in DMSO in 96-well storage plates. Compound stock solutions were vortexed before use and observed carefully for any sign of precipitation. Dilutions were as follow: • For 100 μM final compound concentration, compounds were diluted to 5000 μM (5 μl 10 mM compound stock+5 μl DMSO and mixed well by pipetting. • For 30 μM final compound concentration, compounds were diluted to 1500 μM (3 μl 10 mM compound stock+17 μl DMSO) and mixed well by pipetting. • For 10 μM final compound concentration, compounds were diluted to 500 μM (2 μl 10 mM compound stock+38 μl DMSO) and mixed well by pipetting. 49 μl of the stock protein solution was added to each well of a 96-well PCR plate (Fisher cat #1423027). 1 μl of the diluted 50× compounds were added to appropriate wells in the PCR plate using 12-channel pipettor. Reactions were mixed carefully and thoroughly by pipetting up/down with a 200 μl multi-channel pipettor. […] 5 μl of 2% formic acid (Fisher cat #A117) in DI H2O was then added to each well followed by mixing with a pipette. The plate was then resealed with aluminum seal and stored on dry ice until analyzed as described below.
The above described assays were analyzed by mass spectrometry according to one of the following two procedures:
The MS instrument is set to positive polarity, 2 GHz resolution, and low mass (1700) mode and allowed to equilibrate for 30 minutes. The instrument is then calibrated, switched to acquisition mode and the appropriate method loaded.
After another 30 minute equilibration time, a blank batch (i.e., buffer) is run to ensure equipment is operating properly. The samples are thawed at 37° C. for 10 minutes, briefly centrifuged, and transfer to the bench top. Wells A1 and H12 are spiked with 1 μL 500 μM internal standard peptide, and the plates centrifuged at 2000×g for 5 minutes. The method is then run and masses of each individual well recorded.
The masses (for which integration data is desired) for each well are pasted into the platemap and exported from the analysis. Masses for the internal standards are exported as well. The data at 50 ppm is extracted for the +19 charge state, and identity of well A1 is assigned using the internal standard spike and integrated. Peak data is exported as a TOF list and the above steps are repeated individually, for the +20, 21, 22, 23, 24, and 25 charge states.
The masses and peak intensities of KRAS G12C protein species were measured using a Dionex RSLCnano system (Thermo Scientific) connected to a Q Exactive Plus mass spectrometer (Thermo Scientific).
[…] of sample was each loaded onto a Aeris™ 3.6 μm WIDEPORE C4 200 Å, LC Column 50×2.1 mm column maintained at 40° C. at a flow rate of 600 μl min^−1 with […] (0.1% formic acid in acetonitrile). The liquid chromatography conditions were 20% solvent B for 1 min, 20% to 60% solvent B for 1.5 min, 60% to 90% solvent for 0.5 min, 90% solvent B for 0.2 min, 90% to 20% solvent B for 0.2 min, and then equilibrated for 1.6 min before the following sample injection. The flow rate was maintained at 600 μl min^−1 throughout the sample analysis.
The mass spectrometer was operated in profile mode at a resolution of 17500, 5 microscans, using 50 msec max injection time and an AGC target of 1e6, and a full mass range from 800-1850 m/z was recorded. The HCD trapping gas was optimized for maximum sensitivity for intact proteins. The ionization method was electrospray ionization, which used a spray voltage of 4 kV, sheath gas flow set to 50 au, auxiliary gas flow set to 10 au and sweep gas flow set to 1 au. […]

**Q.** With C=CC(=O)N1C[C@H](C)N(c2nc(N3CC(N(C)C)C3)nc3c(F)c(-c4c(C)ccc5cn[nH]c45)c(Cl)cc23)C[C@H]1C (atropisomer, axis not shown) [Compound 73, 1-((2R,5S)-4-((S)-6-chloro-2-(3-(dimethylamino)azetidin-1-yl)-8-fluoro-7-(6-methyl-1H-indazol-7-yl)quinazolin-4-yl)-2,5-dimethylpiperazin-1-yl)prop-2-en-1-one] as the compound, how does the Binding % read?
**A.** ++ (++ indicates binding activity from 50 to 90%)

**Q.** Which Binding % does the source give for C=CC(=O)N1C[C@H](C)N(c2nc(OCCN(CC)CC)nc3c(F)c(-c4c(O)cccc4F)c(Cl)cc23)C[C@H]1C (atropisomer, axis not shown) [Compound 74, 1-((2R,5S)-4-((R)-6-chloro-2-(2-(diethylamino)ethoxy)-8-fluoro-7-(2-fluoro-6-hydroxyphenyl)quinazolin-4-yl)-2,5-dimethylpiperazin-1-yl)prop-2-en-1-one] here?
**A.** ++ (++ indicates binding activity from 50 to 90%)

Same assay, conditions: covalent binding to KRAS G12C, % modification after a three minute incubation period

**Q.** For C=CC(=O)N1C[C@H](C)N(c2nc(N3CC(N(C)C)C3)nc3c(F)c(-c4c(O)cccc4F)c(C(F)(F)F)cc23)C[C@H]1C [Compound 206, 1-((2R,5S)-4-(2-(3-(dimethylamino)azetidin-1-yl)-8-fluoro-7-(2-fluoro-6-hydroxyphenyl)-6-(trifluoromethyl)quinazolin-4-yl)-2,5-dimethylpiperazin-1-yl)prop-2-en-1-one], which Binding % is on record?
**A.** +++ (+++ indicates binding activity greater than 90%)

**Q.** For C=CC(=O)N1C[C@H](C)N(c2nc(OCCn3ccnc3CC)nc3c(F)c(-c4c(O)cccc4F)c(Cl)cc23)C[C@H]1C (atropisomer, axis not shown) [Compound 277, 1-((2R,5S)-4-(6-chloro-2-(2-(2-ethyl-1H-imidazol-1-yl)ethoxy)-8-fluoro-7-((S)-2-fluoro-6-hydroxyphenyl)quinazolin-4-yl)-2,5-dimethylpiperazin-1-yl)prop-2-en-1-one], which Binding % is on record?
**A.** +++ (+++ indicates binding activity greater than 90%)

**Q.** With C=CC(=O)N1C[C@H](C)N(c2nc(OCCn3ccnc3CC)nc3c(F)c(-c4c(C)ccc5[nH]ncc45)c(Cl)cc23)C[C@H]1C [Compound 283, 1-((2R,5S)-4-(6-chloro-2-(2-(2-ethyl-1H-imidazol-1-yl)ethoxy)-8-fluoro-7-(5-methyl-1H-indazol-4-yl)quinazolin-4-yl)-2,5-dimethylpiperazin-1-yl)prop-2-en-1-one] as the compound, how does the Binding % read?
**A.** +++ (+++ indicates binding activity greater than 90%)

**Q.** How did the Binding % turn out when C=CC(=O)N1C[C@H](C)N(c2nc(OCCc3ncc(N(C)C)cn3)nc3c(F)c(-c4c(O)cccc4F)c(Cl)cc23)C[C@H]1C (atropisomer, axis not shown) [Compound 258, 1-((2R,5S)-4-(6-chloro-2-(2-(5-(dimethylamino)pyrimidin-2-yl)ethoxy)-8-fluoro-7-((S)-2-fluoro-6-hydroxyphenyl)quinazolin-4-yl)-2,5-dimethylpiperazin-1-yl)prop-2-en-1-one] was run?
**A.** +++ (+++ indicates binding activity greater than 90%)

**Q.** C=CC(=O)N1C[C@H](C)N(c2nc(N3CC(N(C)C)C3)nc3c(F)c(-c4c[nH]c5ncccc45)c(Cl)cc23)C[C@H]1C [Compound 300, 1-((2R,5S)-4-(6-chloro-2-(3-(dimethylamino)azetidin-1-yl)-8-fluoro-7-(1H-pyrrolo[2,3-b]pyridin-3-yl)quinazolin-4-yl)-2.5-dimethylpiperazin-1-yl)prop-2-en-1-one] was tested. Which Binding % did it give?
**A.** + (+ indicates binding activity greater than 0% and up to 50%)

**Q.** For C=CC(=O)N1C[C@H](C)N(c2nc(N3CC(N(C)C)C3)nc3c(F)c(-c4c[nH]c5cccc(C)c45)c(Cl)cc23)C[C@H]1C [Compound 291, 1-((2R,5S)-4-(6-chloro-2-(3-(dimethylamino)azetidin-1-yl)-8-fluoro-7-(4-methyl-1H-indol-3-yl)quinazolin-4-yl)-2,5-dimethylpiperazin-1-yl)prop-2-en-1-one], which Binding % is on record?
**A.** + (+ indicates binding activity greater than 0% and up to 50%)

**Q.** How did the Binding % turn out when C=CC(=O)N1CCN(c2nc(N3CC(N(C)C)C3)nc3c(F)c(-c4c(O)cccc4F)c(C(F)(F)F)cc23)C[C@H]1C (atropisomer, axis not shown) [Compound 272, 1-((R)-4-(2-(3-(dimethylamino)azetidin-1-yl)-8-fluoro-7-((R)-2-fluoro-6-hydroxyphenyl)-6-(trifluoromethyl)quinazolin-4-yl)-2-methylpiperazin-1-yl)prop-2-en-1-one] was run?
**A.** +++ (+++ indicates binding activity greater than 90%)

**Q.** C=CC(=O)N1C[C@H](C)N(c2nc(OC3CCN(C)CC3)nc3c(F)c(-c4cc(O)cc5ccccc45)c(Cl)cc23)C[C@H]1C [Compound 245, 1-((2R,5S)-4-(6-chloro-8-fluoro-7-(3-hvdroxynaphthalen-1-yl)-2-((1-methylpiperidin-4-yl)oxy)quinazolin-4-yl)-2,5-dimethylpiperazin-1-yl)prop-2-en-1-one] was tested. Which Binding % did it give?
**A.** +++ (+++ indicates binding activity greater than 90%)

**Q.** Which Binding % does the source give for C=CC(=O)N1C[C@H](C)N(c2nc(N3CC(N(C)C)C3)nc3c(F)c(-c4c(C)ccc5cn[nH]c45)c(Cl)cc23)C[C@H]1C [Compound 187, 1-((2R,5S)-4-(6-chloro-2-(3-(dimethylamino)azetidin-1-yl)-8-fluoro-7-(6-methyl-1H-indazol-7-yl)quinazolin-4-yl)-2,5-dimethylpiperazin-1-yl)prop-2-en-1-one] here?
**A.** +++ (+++ indicates binding activity greater than 90%)

**Q.** C=CC(=O)N1C[C@H](C)N(c2nc(OCCn3ccnc3C3CC3)nc3c(F)c(-c4c(C)ccc5[nH]ncc45)c(Cl)cc23)C[C@H]1C [Compound 276, 1-((2R,5S)-4-(6-chloro-2-(2-(2-cyclopropyl-1H-imidazol-1-yl)ethoxy)-8-fluoro-7-(5-methyl-1H-indazol-4-yl)quinazolin-4-yl)-2,5-dimethylpiperazin-1-yl)prop-2-en-1-one] was tested. Which Binding % did it give?
**A.** ++ (++ indicates binding activity from 50 to 90%)

**Q.** Which Binding % does the source give for C=CC(=O)N1C[C@H](C)N(c2nc(OCCn3ccnc3C#N)nc3c(F)c(-c4c(O)cccc4F)c(Cl)cc23)C[C@H]1C (atropisomer, axis not shown) [Compound 278, 1-(2-(4-((2S,5R)-4-acryloyl-2,5-dimethylpiperazin-1-yl)-6-chloro-8-fluoro-7-((S)-2-fluoro-6-hydroxyphenyl)quinazolin-2-yloxy)ethyl)-1H-imidazole-2-carbonitrile] here?
**A.** ++ (++ indicates binding activity from 50 to 90%)

**Q.** Which Binding % does the source give for C=CC(=O)N1C[C@H](C)N(c2nc(OCCn3cncn3)nc3c(F)c(-c4c(O)cccc4F)c(Cl)cc23)C[C@H]1C (atropisomer, axis not shown) [Compound 259, 1-((2R,5S)-4-(2-(2-(1H-1,2,4-triazol-1-yl)ethoxy)-6-chloro-8-fluoro-7-((S)-2-fluoro-6-hydroxyphenyl)quinazolin-4-yl)-2,5-dimethylpiperazin-1-yl)prop-2-en-1-one] here?
**A.** +++ (+++ indicates binding activity greater than 90%)

**Q.** Which Binding % does the source give for C=CC(=O)N1C[C@H](C)N(c2nc(N3CC(N(C)C)C3)nc3c(F)c(-c4cc(O)cc5ccccc45)c(C(F)(F)F)cc23)C[C@H]1C (atropisomer, axis not shown) [Compound 256, 1-((2R,5S)-4-(2-(3-(dimethylamino)azetidin-1-yl)-8-fluoro-7-((S)-3-hydroxynaphthalen-1-yl)-6-(trifluoromethyl)quinazolin-4-yl)-2,5-dimethylpiperazin-1-yl)prop-2-en-1-one] here?
**A.** + (+ indicates binding activity greater than 0% and up to 50%)
